Measured values taken from article PMC5361079 (Scientific Reports, 2017).
Where two headings read alike, the source gives them in different places.

What was measured:
hiPSC-CMs = test: Intracellular prodrug, cleavage intermediate metabolite and NTP metabolite concentrations in hiPSC-CMs; assay type: in vitro ADME, human; settings: for Effect of CatA inhibitor on sofosbuvir cleavage intermediate metabolite in hiPSC-CMs: hiPSC-CMs incubated with sofosbuvir; for Intracellular Concentration, Cleavage Intermediate Metabolite / Intracellular Concentration, NTP Metabolite: BLOQ = below 17 pmol/million cells
Method: Approximately 18 h before dosing, iCell hiPSC-CMs were switched to iCell cardiomyocyte maintenance media free of Penicillin/Streptomycin. […] […] After the corresponding treatment, cells were washed 2x with 200 μL of ice-cold magnesium- and calcium-free PBS buffer. Cells were then lysed in 100 μL of ice-cold lysis solution (70/30 methanol/water containing 20 mM EDTA and 20 mM EGTA, pH 8) by pipetting up and down 5 times. Plates were sealed and transferred on dry ice for determination of prodrug, cleavage intermediate metabolite, and NTP metabolite concentrations. Intracellular prodrug concentrations were measured using a reversed phase HPLC- high resolution mass spectrometry method. A dimethylhexylamine based ion-pairing HPLC-MS/MS method was used to measure intracellular cleavage intermediate metabolite and NTP metabolite concentrations. Intracellular concentrations (pmol/million cells) of prodrug, cleavage intermediate metabolite, and NTP metabolite were quantitated against calibration standards of the same analytes prepared from control iCell hiPSC-CM lysates.
For prodrug analyses, full scan high resolution mass spectrometry data was collected using an Exactive™ Orbitrap mass spectrometer with an electrospray source operated in the positive ion mode. Prodrug chromatograms were extracted from full scan high resolution mass spectrometry data for the masses indicated in Supplementary Table 5. Absence of endogenous interference(s) was verified by extracting the same ion from full scan high resolution mass spectrometry chromatograms of unspiked control cell lysates. For the cleavage intermediate metabolite and NTP metabolite an electrospray MS/MS method run on a SCIEX API 4000 mass spectrometer with turboV ionspray source was used in negative ion mode monitoring the transitions indicated in Supplementary Table 5. Absence of endogenous interference(s) was verified by monitoring of the same MRM transitions for unspiked control cell lysates. Measured intracellular prodrug, cleavage intermediate metabolite, and NTP metabolite concentrations (in pmol/million cells units) were tabulated (Table 2).

hiPSC-CM syncytia = test: Spontaneous FP rate and IMP amplitude/beating rate in hiPSC-CM syncytia (RTCA CardioECR / RTCA Cardio); assay type: cell-based, human; settings: for Effect on FP rate / Effect on IMP amplitude: prodrug co-administered with 0.3 μM amiodarone, steady state (4 h), spontaneously beating hiPSC-CM syncytia
Method: hiPSC-CMs (iCells®) from Cellular Dynamics International (CDI, Madison, WI, USA) were seeded onto 48-well CardioECR or 96-well Cardio E-Plates® (ACEA Biosciences Inc., San Diego, CA, USA) coated with 10 μg/mL fibronectin (Sigma Aldrich, Catalog# F1141) at 30,000 cells/well, following manufacturer’s recommendations. Cells were maintained in culture (37 °C, 5% CO2) for a period of 14 days with iCell Maintenance® media (CDI, Madison, WI, USA) exchanged every 2–3 days. Compound addition was only performed on or after Day 14 following cell seeding.
Compound stock solutions were prepared in 100% DMSO or H2O. On the day of compound addition, the media was exchanged with fresh iCell Maintenance® media and allowed to equilibrate for at least 3 h in the incubator. The plates were read on an xCELLigence® RTCA CardioECR or RTCA Cardio (ACEA Biosciences Inc., San Diego, CA, USA). Control pre-reads to establish a baseline were recorded for at least 45 minutes (4 reads at 15-min intervals) prior to compound addition. The compound stock solutions were diluted into iCell Maintenance® media and quickly added to the plate. The plate was continuously monitored for at least 18 h following compound addition. IMP data were sampled at 12 ms (83 Hz), while FP rate data were collected at 0.1 ms (10 KHz). Attachment, growth and viability of syncytia were monitored by means of the baseline IMP signal, as previously described. IMP and FP signals were only interpreted if the baseline IMP was maintained throughout the measurement period (usually ≤18 hrs) at ≥70% of the value before test compound application (pre-read value).

Cav1.2 = biological target: T1, Cav1.2 (Homo sapiens, UniProt Q13936); test: Ca2+ influx in Cav1.2/HEK-293 cells (FDSS); assay type: cell-based; settings: for IC50: Cav1.2/HEK-293, compound alone
T1 construct: expressed in transfected cells
T1 sequence (Q13936 whole entry): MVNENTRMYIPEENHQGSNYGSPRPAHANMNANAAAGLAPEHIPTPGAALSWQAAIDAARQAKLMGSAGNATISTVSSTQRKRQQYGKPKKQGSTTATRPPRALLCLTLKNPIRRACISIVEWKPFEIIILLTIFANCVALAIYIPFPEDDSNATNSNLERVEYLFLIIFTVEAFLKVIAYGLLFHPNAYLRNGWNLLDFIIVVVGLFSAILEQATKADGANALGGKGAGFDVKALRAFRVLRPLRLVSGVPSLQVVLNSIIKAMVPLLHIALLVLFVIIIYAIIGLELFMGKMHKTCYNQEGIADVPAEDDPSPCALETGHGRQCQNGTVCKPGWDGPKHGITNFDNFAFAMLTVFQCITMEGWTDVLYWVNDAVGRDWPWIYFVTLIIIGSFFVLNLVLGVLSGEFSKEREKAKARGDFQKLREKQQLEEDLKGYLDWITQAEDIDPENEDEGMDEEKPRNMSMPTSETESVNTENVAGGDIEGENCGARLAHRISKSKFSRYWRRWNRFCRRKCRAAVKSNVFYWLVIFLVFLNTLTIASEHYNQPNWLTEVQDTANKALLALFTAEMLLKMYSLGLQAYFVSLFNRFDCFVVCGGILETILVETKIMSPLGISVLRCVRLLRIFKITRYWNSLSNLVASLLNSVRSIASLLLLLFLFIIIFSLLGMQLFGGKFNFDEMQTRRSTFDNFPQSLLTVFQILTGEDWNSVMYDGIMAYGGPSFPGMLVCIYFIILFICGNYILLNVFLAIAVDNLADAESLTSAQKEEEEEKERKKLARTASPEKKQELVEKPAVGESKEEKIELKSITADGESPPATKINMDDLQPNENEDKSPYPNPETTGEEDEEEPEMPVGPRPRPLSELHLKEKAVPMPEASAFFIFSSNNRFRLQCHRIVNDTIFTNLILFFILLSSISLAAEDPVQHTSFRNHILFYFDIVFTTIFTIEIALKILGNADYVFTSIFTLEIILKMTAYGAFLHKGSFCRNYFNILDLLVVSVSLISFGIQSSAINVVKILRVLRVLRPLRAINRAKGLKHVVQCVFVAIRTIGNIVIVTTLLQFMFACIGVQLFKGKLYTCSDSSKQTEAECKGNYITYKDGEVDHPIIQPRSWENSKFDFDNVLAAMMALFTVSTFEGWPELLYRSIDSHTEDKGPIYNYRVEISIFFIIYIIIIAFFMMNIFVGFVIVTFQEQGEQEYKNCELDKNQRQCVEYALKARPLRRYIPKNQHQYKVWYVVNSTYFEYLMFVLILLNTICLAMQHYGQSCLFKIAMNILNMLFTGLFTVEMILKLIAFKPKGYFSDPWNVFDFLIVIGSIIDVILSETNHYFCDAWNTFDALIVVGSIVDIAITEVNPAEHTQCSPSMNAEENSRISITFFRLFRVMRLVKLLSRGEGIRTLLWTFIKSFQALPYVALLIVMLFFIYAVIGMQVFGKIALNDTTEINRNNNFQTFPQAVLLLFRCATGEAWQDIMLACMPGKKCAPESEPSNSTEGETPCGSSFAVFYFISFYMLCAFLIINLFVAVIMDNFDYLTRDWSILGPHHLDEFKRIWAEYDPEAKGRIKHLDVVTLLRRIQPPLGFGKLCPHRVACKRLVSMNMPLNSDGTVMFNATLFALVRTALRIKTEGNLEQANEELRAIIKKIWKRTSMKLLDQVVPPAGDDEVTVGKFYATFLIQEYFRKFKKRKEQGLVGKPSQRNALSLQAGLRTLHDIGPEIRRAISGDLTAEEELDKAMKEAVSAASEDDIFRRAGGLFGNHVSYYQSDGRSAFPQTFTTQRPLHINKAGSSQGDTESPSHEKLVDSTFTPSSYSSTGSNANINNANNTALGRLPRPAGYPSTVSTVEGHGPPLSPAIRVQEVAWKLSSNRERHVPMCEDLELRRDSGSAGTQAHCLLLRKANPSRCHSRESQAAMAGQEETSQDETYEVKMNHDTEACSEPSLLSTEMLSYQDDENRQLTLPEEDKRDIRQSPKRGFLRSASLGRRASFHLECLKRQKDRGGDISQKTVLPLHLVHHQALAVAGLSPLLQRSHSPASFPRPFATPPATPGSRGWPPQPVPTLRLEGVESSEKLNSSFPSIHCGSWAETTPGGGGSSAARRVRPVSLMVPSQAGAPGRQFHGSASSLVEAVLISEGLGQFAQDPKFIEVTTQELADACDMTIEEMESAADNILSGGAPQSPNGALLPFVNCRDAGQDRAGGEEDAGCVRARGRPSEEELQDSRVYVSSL
T1 sequence (Q08289 whole entry partner): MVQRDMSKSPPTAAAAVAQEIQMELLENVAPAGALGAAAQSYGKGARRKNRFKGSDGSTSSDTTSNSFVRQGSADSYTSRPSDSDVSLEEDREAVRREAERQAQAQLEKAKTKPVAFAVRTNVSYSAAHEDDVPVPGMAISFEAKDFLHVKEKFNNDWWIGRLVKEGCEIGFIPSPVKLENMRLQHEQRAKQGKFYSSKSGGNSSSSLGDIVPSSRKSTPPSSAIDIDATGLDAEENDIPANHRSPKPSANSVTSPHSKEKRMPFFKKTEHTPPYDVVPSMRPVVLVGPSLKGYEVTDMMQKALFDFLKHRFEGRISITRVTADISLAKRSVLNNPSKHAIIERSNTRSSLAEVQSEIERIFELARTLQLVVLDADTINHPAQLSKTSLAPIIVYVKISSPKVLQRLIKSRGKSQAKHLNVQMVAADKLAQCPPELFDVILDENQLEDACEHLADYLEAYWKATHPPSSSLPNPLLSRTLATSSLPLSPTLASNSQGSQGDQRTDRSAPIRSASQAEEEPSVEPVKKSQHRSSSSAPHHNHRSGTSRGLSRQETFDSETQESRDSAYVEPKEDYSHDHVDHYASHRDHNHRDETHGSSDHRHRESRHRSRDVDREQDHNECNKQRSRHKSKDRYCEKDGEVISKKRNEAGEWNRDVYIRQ
T1 sequence (P54289 25-946 partner limits assumed): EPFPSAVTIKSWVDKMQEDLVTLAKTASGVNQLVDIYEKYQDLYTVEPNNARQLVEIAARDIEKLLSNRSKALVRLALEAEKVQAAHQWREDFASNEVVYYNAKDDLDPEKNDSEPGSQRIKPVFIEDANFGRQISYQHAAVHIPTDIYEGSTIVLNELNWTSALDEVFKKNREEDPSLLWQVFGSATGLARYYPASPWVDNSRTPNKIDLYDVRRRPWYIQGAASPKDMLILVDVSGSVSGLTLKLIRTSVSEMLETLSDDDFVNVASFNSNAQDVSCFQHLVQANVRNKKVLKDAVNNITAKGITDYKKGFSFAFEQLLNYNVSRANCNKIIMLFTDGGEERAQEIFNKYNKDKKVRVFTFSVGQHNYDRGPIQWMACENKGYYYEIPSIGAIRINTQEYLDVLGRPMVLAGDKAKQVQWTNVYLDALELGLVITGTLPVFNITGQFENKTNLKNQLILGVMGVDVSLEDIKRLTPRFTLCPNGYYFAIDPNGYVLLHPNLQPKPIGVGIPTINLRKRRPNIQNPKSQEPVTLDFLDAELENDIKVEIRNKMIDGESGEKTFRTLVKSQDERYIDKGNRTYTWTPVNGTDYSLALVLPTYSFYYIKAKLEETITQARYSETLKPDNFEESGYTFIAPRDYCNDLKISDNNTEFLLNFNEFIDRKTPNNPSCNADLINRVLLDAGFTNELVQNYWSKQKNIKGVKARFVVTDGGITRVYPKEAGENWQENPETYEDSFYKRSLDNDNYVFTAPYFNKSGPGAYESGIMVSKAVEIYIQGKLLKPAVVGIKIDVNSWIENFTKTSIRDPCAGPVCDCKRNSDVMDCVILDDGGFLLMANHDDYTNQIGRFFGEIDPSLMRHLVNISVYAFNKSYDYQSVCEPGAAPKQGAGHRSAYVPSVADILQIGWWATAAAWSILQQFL
T1 sequence (P54289 947-1103 partner limits assumed): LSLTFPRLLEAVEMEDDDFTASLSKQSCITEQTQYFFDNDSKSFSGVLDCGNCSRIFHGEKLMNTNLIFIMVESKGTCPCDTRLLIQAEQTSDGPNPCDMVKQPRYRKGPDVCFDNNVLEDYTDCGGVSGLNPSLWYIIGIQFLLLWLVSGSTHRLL
Method: The HEK-293 cell line overexpressing Cav1.2 channel proteins was maintained in-house. HEK-293 cells transiently overexpressing Cav1.3 channel proteins were purchased from ChanTest (Charles River Laboratories, Cleveland, OH, USA). The assay was conducted as previously described. Briefly, on experiment day, cells were incubated with Codex ACTOne® dye (Codex Biosolutions, Inc., Gaithersburg, MD, USA) formulated in PPB buffer containing 25 mM potassium (in mM: 127 NaCl, 25 KCl 0.005 CaCl2, 1.7 MgCl2, 10 HEPES, pH = 7.2 with NaOH), or PPB buffer containing 1 mM potassium (in mM: 151 NaCl, 1 KCl 0.005 CaCl2, 1.7 MgCl2, 10 HEPES, pH = 7.2 with NaOH) for 1 h at room temperature, then test compounds were added for another 30-minute incubation at room temperature with a final volume of 100 μL. The Hamamatsu FDSS/μCell imaging platform simultaneously collected Ca^2+ signals from 96-well plates, at a sampling rate of 16 Hz for 20 seconds as baseline, then a trigger buffer (containing in mM: 119 NaCl, 25 KCl, 4 CaCl2, 1.7 MgCl2, 10 HEPES, pH = 7.2 with NaOH) was added using the dispenser of the FDSS/μCell instrument to generate Ca^2+ transient for 40 seconds. The peak amplitude within the latter 40 seconds minus the average amplitude of the first 20 seconds is the final Ca^2+ transient response of each well. […] Relative response of each well was calculated as follows: […]

[1] = hiPSC-CMs, 10 μM prodrug + 0.3 μM amiodarone, 4 Hours
[2] = hiPSC-CMs, 10 μM prodrug + 0.3 μM amiodarone, 30 Min
[3] = hiPSC-CMs, 10 μM prodrug alone, 4 Hours
[4] = hiPSC-CMs, 10 μM prodrug alone, 30 Min
[5] = read-out: IC50, Ca2+ influx inhibition

SMILES | Effect of CatA inhibitor on sofosbuvir cleavage intermediate metabolite in hiPSC-CMs (hiPSC-CMs) | Effect of CatA inhibitor on L-ala,SP prodrug + amiodarone effects (FP rate, IMP amplitude) (hiPSC-CM syncytia; 30 min pre-incubation and continued incubation, Ebel 3 or 10 μM with sofosbuvir or MNI-1, SAR164653 30 μM with 1 μM MNI-1, 0.3 μM amiodarone) | Intracellular Concentration, Prodrug (hiPSC-CMs; [1]) [pmol/million cells] | Intracellular Concentration, Cleavage Intermediate Metabolite (hiPSC-CMs; [1]) | Intracellular Concentration, NTP Metabolite (hiPSC-CMs; [1]) | Intracellular Concentration, Prodrug (hiPSC-CMs; [2]) [pmol/million cells] | Intracellular Concentration, Cleavage Intermediate Metabolite (hiPSC-CMs; [2]) | Intracellular Concentration, NTP Metabolite (hiPSC-CMs; [2]) | Intracellular Concentration, Prodrug (hiPSC-CMs; [3]) [pmol/million cells] | Intracellular Concentration, Cleavage Intermediate Metabolite (hiPSC-CMs; [3]) | Intracellular Concentration, NTP Metabolite (hiPSC-CMs; [3]) | Intracellular Concentration, Prodrug (hiPSC-CMs; [4]) [pmol/million cells] | Intracellular Concentration, Cleavage Intermediate Metabolite (hiPSC-CMs; [4]) | Intracellular Concentration, NTP Metabolite (hiPSC-CMs; [4]) | Effect on FP rate (hiPSC-CM syncytia) | Effect on IMP amplitude (hiPSC-CM syncytia) | IC50 (Cav1.2; n = 3 for each test, read-out: IC50 in repeat tests) [µM] | IC50 (Cav1.2; [5]) [µM] | inhibition at 30 min, 150 µM (Cav1.2; HEK-293 cells overexpressing Cav1.2 channel proteins, pH 7.2, Cav1.2/HEK-293, 150 μM, compound alone, read-out: inhibition at maximal tested concentration) [%] | Reduction of cleavage intermediate metabolite level compared to sofosbuvir (hiPSC-CMs; hiPSC-CMs, after 4-h incubation)
CC[C@@H](C)[C@@H](O)[C@H](C)C(=O)[C@H](C)/C=C(\C)C[C@H](C)[C@@H]1OC(=O)[C@H]1CC [Ebel, ebelactone B, reference compound] | transiently inhibited the formation of the sofosbuvir cleavage intermediate metabolite to levels below the limit of quantitation after 30 min incubation | concentration-dependent exacerbation | – | – | – | – | – | – | – | – | – | – | – | – | – | – | – | – | – | –
C#C[C@]1(C)[C@@H](O)[C@@H](COP(=O)(N[C@H](C)C(=O)OC(C)C)Oc2ccccc2)O[C@H]1n1ccc(=O)[nH]c1=O (stereo partly drawn) [MNI-4, isopropyl (2R)-2-[[[(2R,3R,4R,5R)-5-(2,4-dioxopyrimidin-1-yl)-4-ethynyl-3-hydroxy-4-methyl-tetrahydrofuran-2-yl]methoxy-phenoxy-phosphoryl]amino]propanoate] | – | – | 78.7 ± 6.4 | BLOQ | BLOQ | 84.8 ± 12.4 | BLOQ | BLOQ | 77.4 ± 6.7 | BLOQ | BLOQ | 75.4 ± 5.1 | BLOQ | BLOQ | lack of effects | lack of effects | 27 to 45 | ~36 | – | –
CC(C)OC(=O)[C@H](C)NP(=O)(OC[C@H]1O[C@@H](n2ccc(=O)[nH]c2=O)[C@](C)(Cl)[C@@H]1O)Oc1ccccc1 (stereo partly drawn) [MNI-3, isopropyl (2S)-2-[[[(2R,3R,4R,5R)-4-chloro-5-(2,4-dioxopyrimidin-1-yl)-3-hydroxy-4-methyl-tetrahydrofuran-2-yl]methoxy-phenoxy-phosphoryl]amino]propanoate] | – | – | 94.0 ± 6.0 | – | – | 89.8 ± 12.5 | – | BLOQ | 106.9 ± 10.1 | – | – | 97.3 ± 14.0 | – | BLOQ | Concentration-dependent, steady-state effects | Concentration-dependent, steady-state effects | – | – | – | –
CC(C)OC(=O)C(C)NP(=O)(OCC1OC(n2ccc(=O)[nH]c2=O)C(C)(F)C1O)Oc1ccccc1 (stereo not shown) [MNI-6] | – | – | – | – | – | – | – | – | 65.5 ± 5.8 | B LOQ | B LOQ | 46.6 ± 3.1 | B LOQ | B LOQ | – | – | – | – | – | –
C#C[C@]1(C)[C@@H](O)[C@@H](COP(=O)(N[C@@H](C)C(=O)OC(C)C)Oc2ccccc2)O[C@H]1n1ccc(=O)[nH]c1=O (stereo partly drawn) [MNI-1, isopropyl (2S)-2-[[[(2R,3R,4R,5R)-5-(2,4-dioxopyrimidin-1-yl)-4-ethynyl-3-hydroxy-4-methyl-tetrahydrofuran-2-yl]methoxy-phenoxy-phosphoryl]amino]propanoate] | – | – | 70.5 ± 14.4 | – | Detected but BLOQ | 69.9 ± 5.3 | – | BLOQ | 69.1 ± 6.8 | – | Detected but BLOQ | 75.4 ± 2.3 | – | BLOQ | Concentration-dependent, steady-state effects | Concentration-dependent, steady-state effects | – | > 150 | 21 | –
COc1cc(C(=O)N[C@@H](CC(=O)O)c2ccccc2C)nn1-c1ccccc1F [SAR164653, reference compound] | decreased, with concentration and time dependence | – | – | – | – | – | – | – | – | – | – | – | – | – | – | – | – | – | – | –
CC(C)OC(=O)C(C)NP(=O)(OCC1OC(n2ccc(=O)[nH]c2=O)C(C)(F)C1O)Oc1ccccc1 (stereo not shown) [MNI-5] | – | – | – | – | – | – | – | – | 97.1 ± 36.8 | 121.0 ± 6.24 pmol/million cells | B LOQ | 53.6 ± 14.2 | B LOQ | B LOQ | – | – | – | – | – | ~ 80%
